This note sets out measurements from US7868031B2, “Propionamide compounds as antiinflammatory agents” (Roche Palo Alto LLC, priority 2005, dated 2011).

The target in this experiment is T1, Human recombinant purified glucocorticoid receptor (Homo sapiens, UniProt P04150).
T1 sequence (P04150 1-777): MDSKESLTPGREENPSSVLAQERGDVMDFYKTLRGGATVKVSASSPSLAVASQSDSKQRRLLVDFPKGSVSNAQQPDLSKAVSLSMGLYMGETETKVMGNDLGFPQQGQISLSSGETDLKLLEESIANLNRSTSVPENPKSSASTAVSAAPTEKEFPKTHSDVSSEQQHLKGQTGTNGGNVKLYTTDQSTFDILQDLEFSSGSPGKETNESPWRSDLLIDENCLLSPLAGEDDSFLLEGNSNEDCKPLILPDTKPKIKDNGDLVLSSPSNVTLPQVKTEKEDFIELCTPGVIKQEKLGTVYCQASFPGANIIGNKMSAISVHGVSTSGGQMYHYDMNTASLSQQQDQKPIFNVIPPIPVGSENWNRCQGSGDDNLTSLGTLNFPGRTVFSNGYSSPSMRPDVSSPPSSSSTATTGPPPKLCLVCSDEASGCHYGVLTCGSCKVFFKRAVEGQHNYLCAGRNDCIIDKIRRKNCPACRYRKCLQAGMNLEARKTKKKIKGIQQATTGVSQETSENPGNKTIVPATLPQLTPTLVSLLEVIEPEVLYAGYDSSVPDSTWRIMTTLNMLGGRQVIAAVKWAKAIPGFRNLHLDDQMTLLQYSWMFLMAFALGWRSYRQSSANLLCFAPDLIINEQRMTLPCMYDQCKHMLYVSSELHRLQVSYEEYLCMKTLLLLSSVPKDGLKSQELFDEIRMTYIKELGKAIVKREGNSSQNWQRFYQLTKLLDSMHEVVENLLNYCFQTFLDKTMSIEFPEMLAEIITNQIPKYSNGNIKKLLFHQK
Put plainly: Glucocorticoid receptor competitive binding assay (3H-dexamethasone). To be noted: competition with 2 nM 3H-dexamethasone; GR at 1 nM; 4° C. overnight; read-out: Binding Affinity Ki. How it is done:
The affinity of glucocorticoid receptor antagonists for the glucocorticoid receptor was determined in competitive binding assays by the ability of the antagonist to compete with tritiated dexamethasone. All assay steps were performed on ice in 96-well plates. Binding buffer contained 10 mM potassium phosphate pH 7.4, 20 mM Na2Mo4, 100 μM EDTA, 2% DMSO, and 5 mM DTT. Human recombinant purified glucocorticoid receptor was used at 1 nM. Compounds tested had up to 2% DMSO final concentration. Non-specific binding condition was 1 μM dexamethasone. The radioligand used for the competition assay was 2 nM ^3H-dexamethasone (83 Ci/mmol stock solution). Buffer, compounds or vehicles, GR, and radioligand were incubated at 4° C. overnight. Unifilter GF/B 96-well filter plates were treated with 0.5% PEI after incubation. Samples were transferred to filter plates by a cell harvester.
Filter plates were washed five times with 50 mM Tris pH 7.5 and 5 mM EDTA wash buffer. Samples were dried at 65° C. for about 1 hr. Scintillation fluid was added to filter plates at 50 μL/well and ^3H cpm were measured on a TopCount scintillation counter.
Take `O=C(Nc1ccc(-c2ncco2)cc1)C(O)(CC1(c2ccccc2C(F)(F)F)CCC1)C(F)(F)F` (stereo not shown) [Example 1, 3,3,3-Trifluoro-2-hydroxy-N-(4-oxazol-2-yl-phenyl)-2-[1-(2-trifluoromethyl-phenyl)-cyclobutylmethyl]-propionamide]: the Ki was 161 nM. To `O=C(Nc1cccc(-c2cnco2)c1)C(O)(CC1(c2ccccc2C(F)(F)F)CCC1)C(F)(F)F` (stereo not shown) [Example 2, 3,3,3-Trifluoro-2-hydroxy-N-(3-oxazol-5-yl-phenyl)-2-[1-(2-trifluoromethyl-phenyl)-cyclobutylmethyl]-propionamide] belongs 13.5 nM. In the case of `Cc1noc(-c2ccc(NC(=O)C(O)(CC3(c4ccccc4C(F)(F)F)CCC3)C(F)(F)F)cc2)n1` (stereo not shown) [Example 3, 3,3,3-Trifluoro-2-hydroxy-N-[4-(3-methyl-[1,2,4]oxadiazol-5-yl-)-phenyl]-2-[1-(2-trifluoromethyl-phenyl)-cyclobutylmethyl]-propionamide], the Ki was determined as 25.2 nM. As for `CCOC(=O)C(O)c1ccc(NC(=O)C(O)(CC2(c3ccccc3C(F)(F)F)CCC2)C(F)(F)F)cc1` (stereo not shown) [Example 4, Hydroxy-(4-{3,3,3-trifluoro-2-hydroxy-2-[1-(2-trifluoromethyl-phenyl)-cyclobutylmethyl]-propionylamino}-phenyl)-acetic acid ethyl ester], the Ki is 555 nM.

One may read the Ki as a measure of affinity in units of concentration, obtained from inhibition or displacement.
